In patent publication US20050232933A1, “CMV-IE1 peptides and method of use” (priority 2003, published 2005):
Like-named read-outs stand apart in the source and are kept apart here.

Experiments:
[1] = system: CD8 human cells; settings: HLA A*0201; (pN) = peptide number in the source; cited from earlier work
[2] = system: CD8 human cells; settings: cited from earlier work; for Stimulatory grade, B: Khan et al. 2002 (ELISPOT): HLA A*0201
[3] = target: T1, HLA A*0201 molecule on T2 cells (Homo sapiens, UniProt P04439, D140Y/D185E/D98H/E176V/E277Q/G131W/G231S/I119V/I121R/I166T/I218V/L300P/L318F/N151K/N90K/P208A/P217A/Q86G/Q94H/R138H/R169H/T345S); format: binding
T1 construct: host or cells: T2 cells
Description: T2 cells, ATCC accession no. CRL-1992, are defective for endogenous class I presentation, but peptide binding to the MHC molecule stabilizes its expression on the cell surface. The stabilized MHC molecule can be detected by flow cytometry with a monoclonal antibody to the HLA A*0201 molecule. T2 cells express HLA A*0201 but not the HLA DR and are class II MHC antigen negative. […] A293 cells are human embryonic kidney cells. A293-IE1 is a stably transfected human kidney cell line endogenously expressing the CMV-IE1 protein. All cells used in experiments were mycoplasma-free and were maintained in RPMI-1640 supplemented with 10% FBS, penicillin-streptomycin and 2 mM glutamine.
T2 cells are defective for endogenous class I presentation but the presence of peptide binding to the MHC molecule will stabilize its expression on the cell surface. The stabilized MHC molecule can be detected by flow cytometry using a monoclonal antibody to the HLA A-A*0201 molecule. Peptide sequences were selected using two algorithms for HLA peptide predicted motifs publicly available on the internet ([…] (Rammensee et al., Immunogenetics 50:213-219, 1999) and BIMAS).
The peptides were assayed on T2 cells for their ability to bind and stabilize the A2 molecules on the cell surface according to methods described in Gricks et al., Cancer Res. 61:5145-5152, 2001, with modifications. […] The level of stabilized HLA-A2 on the surface of the T2 cells was determined according to known methods using monoclonal antibody BB7.2, which specifically recognizes HLA A*0201 as described in BenMohamed et al., Hum. Immunol. 61:764-779, 2000 and Parham et al., Hum. Immunol. 3:277-299, 1981 and a FITC-labeled goat anti-mouse F(ab′)2. Fluorescence was detected with a FACSCalibur™ flowcytometer. Numbers in the peak channel were compared to control T2 cells that contained HLA mismatch B7 peptide or no peptide.
The results were expressed as fold increased fluorescence compared to the mean of no peptide and HLA mismatch B7 peptide.

[4] = system: CD8 human cells; assay: Summary of stimulatory CMV IE1 HLA A*0201 restricted peptides, present report (Table I, A); format: cell-based
Description: These mutations may contribute to the low incidence of response to individual IE1 peptides. The locations of putative mutations are underlined. See Frankenberg et al., Virology 295: 208-216, 2002. Typically, the mutations that would most dramatically affect the binding of an epitope into the MHC molecule are situated at the anchor site, amino acid positions p2 and p9 of a peptide. See Falk et al., Semin. Immunol. 15:81-94, 1993; Zaia et al., J. Virol. 75:2472-2474, 2001. The only peptide showing a p2-p9 unstable mutation site is IE1-315, first described by Retiere (J. Virol. 74:3948-3952, 2000) using a TNF release assay. […] See Khan et al., J. Infect. Dis. 185:1025-1034, 2002. However IE1-316, which contains possible mutations at site p1 and p8, was more frequently recognized in this same study (6 out of 18) in an IFN-γ elispot assay. IE1-297, possibly mutated at p1 and p5, is a strong candidate for CMV immune recognition as well, since 3 of 4 patient PBLs responded in an ICC (intracellular cytokine) assay. Therefore, despite the presence of point mutation sites in IE1 epitopes, provided the anchor sites are intact, IE1-297 and IE1-316 peptides are presented by the MHC molecule after immunization with or exposure to CMV in HLA A*0201 subjects. In summary, IE1-297, IE1-316 and IE1-256 are peptides that stimulate CD8 human cells (Table I).

[5] = system: CD8 cells; assay: Intracellular cytokine (ICC) IFN-γ assay, fresh blood from CMV seropositive stem cell transplantation subjects; format: cell-based, human
Experimental: Having identified IE1-297 peptide as an important epitope in the process of CTL response to CMV-IE1 immunization in A2 transgenic mice, this peptide was tested to determine if it was recognized by CD8 cells from CMV seropositive human subjects. Fresh whole blood samples were collected from four individuals susceptible to CMV reactivation 40, 120, 150 and 180 days after stem cell transplantation. Frozen white blood cells from the human subjects were stimulated for 6 hours with 100 μM IE1-297, pp65(p495) or HIV peptide (negative control) and PHA (positive control). The cells then were stained to detect CD8 and IFN-γ production. Four patient samples were analyzed by cytokine flow cytometry.

[6] = system: CD8+ peripheral blood lymphocytes; assay: ICC/IFN-γ assay, cryopreserved PBL of HLA-A2 HCT subjects; settings: CMV reactivation
Experimental: Five CMV seropositive HLA A2 human subjects showing CMV reactivation within 100 days post hematopoietic cell transplantation (HCT) and 6 CMV seropositive subjects without CMV reactivation were followed at days 40, 90, 120, 150, 180 and 360 post HCT. The intracellular IFN-γ response (ICC) to CMVpp65p495-503, CMV-IE1-256, IE1-297 and IE1-316 and the CD8 MHC/peptide binding (tetramer assay) using CMVpp65p495-503, IE1-297 and IE1-316 were analyzed in two groups.
Eleven HLA A*0201 HCT recipients, at risk for CMV infection because of donor and/or recipient CMV-seropositivity, were enrolled in this study. The subjects included related sibling donors and recipients of allogeneic HCT for hematologic malignancies as well as HCT recipients of matched unrelated donor (MUD).
Peripheral blood mononuclear cells (PBMC) from heparin-treated whole blood were isolated using Histopaque™-1077 density gradients, washed with 1× phosphate-buffered saline (PBS) and cryopreserved in aliquots of 3×10^6 to 5×10^6 cells/mL in 90% fetal bovine serum (FBS) and 10% dimethylsulfoxide. The plasma was collected by centrifugation, filtered through 0.45 μm Acrodisc™ filters and stored at −20° C. until DNA extraction.
Donor samples (except for MUD subjects) were drawn before administration of granulocyte-colony stimulating factor (G-CSF) and later at the time of harvest. Recipient blood samples were collected at day 40, 90, 120, 150, 180 and 360 post-transplant for ICC and tetramer binding assays, and the CMV reactivation was monitored starting at day 21 post-HCT and twice weekly until day 100 using a shell vial assay and quantitative PCR.
To evaluate the immune reactivity to CMV in HLA-A2 subjects, cryopreserved peripheral blood lymphocytes (PBL) from the subjects were stimulated with peptides derived from CMV-pp65 and CMV-IE1 proteins. […] The positive stimulation control contained phytohemagglutinin (PHA) and the negative control contained HIV peptide.
After 1 hour incubation at 37° C. in 5% CO2, 1 μL (stock 5 mg/mL) of Brefeldin A, a cytokine secretion inhibitor, was added to the cells and further incubated overnight. Samples were then washed with 1×PBS and 0.5% bovine serum albumin and stained for 20 minutes in the dark with 5 μL of anti-CD8 antibody conjugated to streptavidin-phycoerythrin (CD8-PE). The cells were fixed and permeabilized for 20 minutes using the Cytofix/Cytoperm Kit™ (Pharmingen™) and stained for 30 minutes at 4° C. in the dark with 1 μL of anti-IFN-γ conjugated with streptavidin-allophycocyanin (APC).
After purification, the peptides were dissolved in 10% DMSO/water to a concentration of 5 mM and used at a final concentration of 25 μM for T cell stimulation. […] The latter two peptides served as a positive and negative control, respectively.
For FACS, patient cell samples were washed twice with 1× Cytofix™ Wash Solution for analysis by fluorescence-activated cell sorting using a FACScalibur™ instrument. The lymphocytes were gated based on forward and side scatter. A minimum of 50,000 events were analyzed per sample. The reported data are the values obtained after subtraction of background levels acquired with HIV peptide stimulation (which ranged from 0.0% to 0.5%).

[7] = T2 cells, 100 μM peptide, 18 hours
[8] = fluorescence compared to the mean of no peptide and HLA mismatch B7 peptide, 100 μM peptide

## ILGADPLRV (listed as Human cytomegalovirus) [IE1-355]
[1]
  Stimulatory grade, C: Frankenberg et al. 2002 (IVS4): (p10) poor
[2]
  Stimulatory grade, B: Khan et al. 2002 (ELISPOT): neg

## LLSEFCRV (LLSEFCRVL; listed as Human cytomegalovirus) [IE1-304]
[1]
  Stimulatory grade, C: Frankenberg et al. 2002 (IVS4): (p4) neg
[2]
  Stimulatory grade, B: Khan et al. 2002 (ELISPOT): neg
[3]; [7]
  peak channel: 433
[3]; [8]
  Fold Increase: 1.8 fold
[4]
  Stimulatory grade, A: Present Report: neg

## VLAELVKQI (listed as Human cytomegalovirus) [IE1-81]
[1]
  Stimulatory grade, C: Frankenberg et al. 2002 (IVS4): (p2) neg
[2]
  Stimulatory grade, B: Khan et al. 2002 (ELISPOT): neg
[3]; [7]
  peak channel: 495
[3]; [8]
  Fold Increase: 2 fold
[4]
  Stimulatory grade, A: Present Report: neg

## phytohemagglutinin [PHA]
[5]; Patient No. 70, 150 days post-transplant
  % CD8+/IFN-γ: <33.15%
[5]; Patient No. 70, 180 days post-transplant
  % CD8+/IFN-γ: 19.2%
[5]; Patient No. 93, 120 days post-transplant
  % CD8+/IFN-γ: 37.6%
[5]; Patient No. 100, 40 days post-transplant
  % CD8+/IFN-γ: 2.09%
[6]; Subj. 54, Day 40 post-HCT
  % CD8+/IFN-γ+ after peptide stimulation: 0.54%
[6]; Subj. 54, Day 90 post-HCT
  % CD8+/IFN-γ+ after peptide stimulation: 5.34%
[6]; Subj. 54, Day 150 post-HCT
  % CD8+/IFN-γ+ after peptide stimulation: 1.78%
[6]; Subj. 54, Day 180 post-HCT
  % CD8+/IFN-γ+ after peptide stimulation: 4.27%
[6]; Subj. 54, Day 360 post-HCT
  % CD8+/IFN-γ+ after peptide stimulation: 6.91%
[6]; Subj. 70(D) donor, postG
  % CD8+/IFN-γ+ after peptide stimulation: 0.63%
[6]; Subj. 70(D) donor, preG
  % CD8+/IFN-γ+ after peptide stimulation: 0.24%
[6]; Subj. 70, Day 40 post-HCT
  % CD8+/IFN-γ+ after peptide stimulation: 0.64%
[6]; Subj. 70, Day 90 post-HCT
  % CD8+/IFN-γ+ after peptide stimulation: 5.09%
[6]; Subj. 70, Day 120 post-HCT
  % CD8+/IFN-γ+ after peptide stimulation: 4.01%
[6]; Subj. 70, Day 150 post-HCT
  % CD8+/IFN-γ+ after peptide stimulation: 2.44%
[6]; Subj. 70, Day 180 post-HCT
  % CD8+/IFN-γ+ after peptide stimulation: 2.88%
[6]; Subj. 70, Day 360 post-HCT
  % CD8+/IFN-γ+ after peptide stimulation: 3.5%
[6]; Subj. 93(D) donor, postG
  % CD8+/IFN-γ+ after peptide stimulation: 6.08%
[6]; Subj. 93(D) donor, preG
  % CD8+/IFN-γ+ after peptide stimulation: 2.08%
[6]; Subj. 93, Day 40 post-HCT
  % CD8+/IFN-γ+ after peptide stimulation: 6.32%
[6]; Subj. 93, Day 120 post-HCT
  % CD8+/IFN-γ+ after peptide stimulation: 12.46%
[6]; Subj. 93, Day 150 post-HCT
  % CD8+/IFN-γ+ after peptide stimulation: 21.01%
[6]; Subj. 93, Day 360 post-HCT
  % CD8+/IFN-γ+ after peptide stimulation: 16.5%
[6]; Subj. 94, Day 40 post-HCT
  % CD8+/IFN-γ+ after peptide stimulation: 23.17%
[6]; Subj. 94, Day 90 post-HCT
  % CD8+/IFN-γ+ after peptide stimulation: 21.58%
[6]; Subj. 94, Day 120 post-HCT
  % CD8+/IFN-γ+ after peptide stimulation: 14.53%
[6]; Subj. 94, Day 150 post-HCT
  % CD8+/IFN-γ+ after peptide stimulation: 15.03%
[6]; Subj. 94, Day 180 post-HCT
  % CD8+/IFN-γ+ after peptide stimulation: 29.1%
[6]; Subj. 94, Day 360 post-HCT
  % CD8+/IFN-γ+ after peptide stimulation: 20.21%
[6]; Subj. 105(D) donor, postG
  % CD8+/IFN-γ+ after peptide stimulation: 5.3%
[6]; Subj. 105, Day 40 post-HCT
  % CD8+/IFN-γ+ after peptide stimulation: 11.56%
[6]; Subj. 105, Day 90 post-HCT
  % CD8+/IFN-γ+ after peptide stimulation: 40.76%
[6]; Subj. 105, Day 120 post-HCT
  % CD8+/IFN-γ+ after peptide stimulation: 29.38%
[6]; Subj. 105, Day 150 post-HCT
  % CD8+/IFN-γ+ after peptide stimulation: 26.14%

## TPRVTGGGAM [CMVB7-417]
[3]
  Fold Increase: 1 fold
  peak channel: 232

## RPHERNGFTVL (listed as Human cytomegalovirus) [CMVB7-265]
[3]; [7]
  peak channel: 261
[3]; [8]
  Fold Increase: 1 fold

## YVLEETSVM (listed as Human cytomegalovirus) [IE1-315]
[2]; out of 18 subjects, Khan et al.
  subjects recognizing the peptide in IFN-γ elispot: one subject out of 18

## SLLSEFCRV (listed as Human cytomegalovirus) [IE1-303]
[1]
  Stimulatory grade, C: Frankenberg et al. 2002 (IVS4): (p9) poor
[2]
  Stimulatory grade, B: Khan et al. 2002 (ELISPOT): neg
